Reference: PubChem BioAssay (NCI)
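96-well plates; 48 h exposure; 5 concentrations. Endpoints by linear interpolation between flanking doses. Not reached: highest tested concentration assigned. GI50 is the concentration that inhibits growth by half. At the TGI there is no net growth.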

Assays:
Assay in all cases: NCI tumour cell line growth inhibition, 48 h
786-0 renal = tested on: 786-0 renal
A498 renal = tested on: A498 renal
A549 NSCLC = tested on: A549 NSCLC
ACHN renal = tested on: ACHN renal
BT-549 breast = tested on: BT-549 breast
CAKI-1 renal = tested on: CAKI-1 renal
COLO 205 colon = tested on: COLO 205 colon
DU-145 prostate = tested on: DU-145 prostate
EKVX NSCLC = tested on: EKVX NSCLC
HCC-2998 colon = tested on: HCC-2998 colon
HCT-116 colon = tested on: HCT-116 colon
HCT-15 colon = tested on: HCT-15 colon
HL-60(TB) leukemia = tested on: HL-60(TB) leukemia
HOP-62 NSCLC = tested on: HOP-62 NSCLC
HOP-92 NSCLC = tested on: HOP-92 NSCLC
HS 578T breast = tested on: HS 578T breast
HT29 colon = tested on: HT29 colon
IGROV1 ovarian = tested on: IGROV1 ovarian
K-562 leukemia = tested on: K-562 leukemia
KM12 colon = tested on: KM12 colon
LOX IMVI melanoma = tested on: LOX IMVI melanoma
M14 melanoma = tested on: M14 melanoma
MALME-3M melanoma = tested on: MALME-3M melanoma
MCF7 breast = tested on: MCF7 breast
MDA-MB-231 breast = tested on: MDA-MB-231 breast
MDA-MB-435 = tested on: MDA-MB-435
MOLT-4 leukemia = tested on: MOLT-4 leukemia
NCI-H226 lung = tested on: NCI-H226 lung
NCI-H23 lung = tested on: NCI-H23 lung
NCI-H460 lung = tested on: NCI-H460 lung
NCI-H522 lung = tested on: NCI-H522 lung
NCI/ADR-RES ovarian = tested on: NCI/ADR-RES ovarian
OVCAR-3 ovarian = tested on: OVCAR-3 ovarian
OVCAR-4 ovarian = tested on: OVCAR-4 ovarian
OVCAR-5 ovarian = tested on: OVCAR-5 ovarian
OVCAR-8 ovarian = tested on: OVCAR-8 ovarian
PC-3 prostate = tested on: PC-3 prostate
RXF 393 renal = tested on: RXF 393 renal
SF-268 CNS = tested on: SF-268 CNS
SF-295 CNS = tested on: SF-295 CNS
SF-539 CNS = tested on: SF-539 CNS
SK-MEL-2 melanoma = tested on: SK-MEL-2 melanoma
SK-MEL-28 melanoma = tested on: SK-MEL-28 melanoma
SK-MEL-5 melanoma = tested on: SK-MEL-5 melanoma
SK-OV-3 ovarian = tested on: SK-OV-3 ovarian
SN12C renal = tested on: SN12C renal
SNB-19 CNS = tested on: SNB-19 CNS
SR leukemia = tested on: SR leukemia
SW-620 colon = tested on: SW-620 colon
T-47D breast = tested on: T-47D breast
TK-10 renal = tested on: TK-10 renal
U251 CNS = tested on: U251 CNS
UACC-257 melanoma = tested on: UACC-257 melanoma
UACC-62 melanoma = tested on: UACC-62 melanoma
UO-31 renal = tested on: UO-31 renal

OCC#Cc1ccccc1C#CCCCCCCC#Cc1ccccc1C#CCO
GI50 (786-0 renal): 17.3 µM
TGI (786-0 renal): 31.1 µM
GI50 (A498 renal): 21.5 µM
TGI (A498 renal): 36.1 µM
GI50 (A549 NSCLC): 17.2 µM
TGI (A549 NSCLC): 33.9 µM
GI50 (ACHN renal): 17.4 µM
TGI (ACHN renal): 31.5 µM
GI50 (BT-549 breast): 20.2 µM
TGI (BT-549 breast): 37.9 µM
GI50 (CAKI-1 renal): 17.4 µM
TGI (CAKI-1 renal): 32.8 µM
GI50 (COLO 205 colon): 18.8 µM
TGI (COLO 205 colon): 36.4 µM
GI50 (DU-145 prostate): 19.1 µM
TGI (DU-145 prostate): 35.1 µM
GI50 (EKVX NSCLC): 17.5 µM
TGI (EKVX NSCLC): 32.7 µM
GI50 (HCC-2998 colon): 17.7 µM
TGI (HCC-2998 colon): 31.5 µM
GI50 (HCT-116 colon): 10.7 µM
TGI (HCT-116 colon): 24.5 µM
GI50 (HCT-15 colon): 23.2 µM
TGI (HCT-15 colon): 59.6 µM
GI50 (HL-60(TB) leukemia): 25.2 µM
TGI (HL-60(TB) leukemia): 48.5 µM
GI50 (HOP-62 NSCLC): 9.78 µM
TGI (HOP-62 NSCLC): 25.8 µM
GI50 (HOP-92 NSCLC): 13.1 µM
TGI (HOP-92 NSCLC): 26.5 µM
GI50 (HS 578T breast): 18.2 µM
TGI (HS 578T breast): 39.1 µM
GI50 (HT29 colon): 22.7 µM
TGI (HT29 colon): > 75.9 µM
GI50 (IGROV1 ovarian): 7.97 µM
TGI (IGROV1 ovarian): 44.3 µM
GI50 (K-562 leukemia): 15.8 µM
TGI (K-562 leukemia): 40.8 µM
GI50 (KM12 colon): 18.1 µM
TGI (KM12 colon): 37.1 µM
GI50 (LOX IMVI melanoma): 18 µM
TGI (LOX IMVI melanoma): 34.7 µM
GI50 (M14 melanoma): 5.64 µM
TGI (M14 melanoma): 22.9 µM
GI50 (MALME-3M melanoma): 15.7 µM
TGI (MALME-3M melanoma): 30.1 µM
GI50 (MCF7 breast): 18.4 µM
TGI (MCF7 breast): 40.7 µM
GI50 (MDA-MB-231 breast): 9.97 µM
TGI (MDA-MB-231 breast): 24.8 µM
GI50 (MDA-MB-435): 18.1 µM
TGI (MDA-MB-435): 34.1 µM
GI50 (MOLT-4 leukemia): 11.1 µM
TGI (MOLT-4 leukemia): 30.8 µM
GI50 (NCI-H226 lung): 16.4 µM
TGI (NCI-H226 lung): 33.1 µM
GI50 (NCI-H23 lung): 17.1 µM
TGI (NCI-H23 lung): 30.9 µM
GI50 (NCI-H460 lung): 20.5 µM
TGI (NCI-H460 lung): 47.4 µM
GI50 (NCI-H522 lung): 0.882 µM
GI50 (NCI/ADR-RES ovarian): 17.7 µM
TGI (NCI/ADR-RES ovarian): 33 µM
GI50 (OVCAR-3 ovarian): 18.3 µM
TGI (OVCAR-3 ovarian): 33.4 µM
GI50 (OVCAR-4 ovarian): 18.4 µM
TGI (OVCAR-4 ovarian): 45.6 µM
GI50 (OVCAR-5 ovarian): 17 µM
TGI (OVCAR-5 ovarian): 30.7 µM
GI50 (OVCAR-8 ovarian): 17 µM
TGI (OVCAR-8 ovarian): 35.8 µM
GI50 (PC-3 prostate): 15.9 µM
TGI (PC-3 prostate): 33.3 µM
GI50 (RXF 393 renal): 16.8 µM
TGI (RXF 393 renal): 33.6 µM
GI50 (SF-268 CNS): 16.2 µM
TGI (SF-268 CNS): 32.5 µM
GI50 (SF-295 CNS): 14.6 µM
TGI (SF-295 CNS): 28.6 µM
GI50 (SF-539 CNS): 18.7 µM
TGI (SF-539 CNS): 32.8 µM
GI50 (SK-MEL-2 melanoma): 34.6 µM
TGI (SK-MEL-2 melanoma): > 100 µM
GI50 (SK-MEL-28 melanoma): 23.6 µM
TGI (SK-MEL-28 melanoma): 62.2 µM
GI50 (SK-MEL-5 melanoma): 17 µM
TGI (SK-MEL-5 melanoma): 31.3 µM
GI50 (SK-OV-3 ovarian): 15.8 µM
TGI (SK-OV-3 ovarian): 30.5 µM
GI50 (SN12C renal): 15.8 µM
TGI (SN12C renal): 31.1 µM
GI50 (SNB-19 CNS): 18.6 µM
TGI (SNB-19 CNS): 34.2 µM
GI50 (SR leukemia): 16 µM
TGI (SR leukemia): 34.6 µM
GI50 (SW-620 colon): 22.2 µM
TGI (SW-620 colon): 41.6 µM
GI50 (T-47D breast): 18.1 µM
TGI (T-47D breast): 33.7 µM
GI50 (TK-10 renal): 19.2 µM
TGI (TK-10 renal): 34.2 µM
GI50 (U251 CNS): 18.2 µM
TGI (U251 CNS): 34.1 µM
GI50 (UACC-257 melanoma): 18.9 µM
TGI (UACC-257 melanoma): 34.5 µM
GI50 (UACC-62 melanoma): 16.8 µM
TGI (UACC-62 melanoma): 31.4 µM
GI50 (UO-31 renal): 24 µM
TGI (UO-31 renal): > 53.1 µM
